Several values for one entry are separate records, joined by “and”; a condition that tells them apart may be missing. Equal entries are not always repeated.
What was measured:
ApoE^–/– mice on an HFD [1] = assay: Blood chemical analysis of plasma; assay type: in vivo, mouse; parameters: Lipase / ALT / Altherogenic Lipids (Chol-HDL) / HDL-C / LDL-C: unit not given here
Description: SerBut water was pH adjusted using 10 M NaOH to a final pH of 7.4. […] After 6 weeks, mice were euthanized. […] The liver was harvested and part was homogenized in tissue protein extraction reagent buffer (Invitrogen, 78510) supplemented with protease inhibitor mini tablets (Thermo Fisher Scientific, PIA32955) for Western blotting and qPCR. […] Blood chemical analysis was performed on an Alfa […] Chemistry Analyzer. Reagent kits from Alfa Wasserman were used according to manufacturer's instructions to analyze plasma: lipase (catalog SA1045), HDL-C (catalog SA2038, LDL-C (catalog SA1040), AST (catalog SA1053), ALT (catalog SA1052). A LEGENDPlex was utilized to analyze the concentrations of inflammatory cytokines (BioLegend).

ApoE^–/– mice on an HFD [2] = assay: CD68 immunohistochemistry and Stary plaque severity grading; assay type: in vivo, mouse; parameters: STARY Score Average: scale not given here
Description: For 6 weeks, mice were freely administered water, water containing 150 mM SerBut, or water containing an equimolar amount of NaBut. SerBut water was pH adjusted using 10 M NaOH to a final pH of 7.4. […] In concert, mice were fed an HFD with 42% from fat and 0.2% total cholesterol (Envigo, TD-88137) ad libitum. After 6 weeks, mice were euthanized. The lMLNs, ILNs, spleen, heart, and aorta were harvested and processed for flow cytometry analysis ([67]). The liver was harvested and part was homogenized in tissue protein extraction reagent buffer (Invitrogen, 78510) supplemented with protease inhibitor mini tablets (Thermo Fisher Scientific, PIA32955) for Western blotting and qPCR. The remaining liver was fixed with 4% paraformaldehyde and embedded in paraffin for histological analysis.
Frozen aortic root sections were fixed in Zamboni fixative for 10 minutes. After TBS wash, slides were loaded on Leica Bond RX automated stainer. Anti–mouse CD68 antibody (BioLegend, catalog 137001, clone FA-11; 1:4000) was applied to tissue sections for 60 minutes of incubation at room temperature. Following TBS wash, tissue sections were incubated with rabbit anti-rat IgG (Thermo Fisher Scientific, 31219) 30 minutes. The antigen-antibody binding was detected using Polymer-HRP (Leica Biosystems, Bond Polymer Refine Detection kit, DS9800). The slides were coverglassed by autocoverslipper (Tissue-Tek Glas g2). Stary plaque severity grading was done as previously described ([42]). Briefly, each individual mouse was scored if there were at least 2 sections showing all 3 leaflets of the aortic valve that could reasonably be scored. Each leaflet was scored individually per aortic valve and subsequently averaged per section. All sections were averaged per mouse for a final score. Sections were graded blinded. Table 1 explains the scoring scale. Quantitative analysis of plaque features was performed using a classifier in QuPath (v.05.0).

ApoE^–/– mice on an HFD [3] = assay: Flow cytometry of the aorta; assay type: in vivo, mouse; parameters: Aorta Flow CD11b+F480+ / Aorta Flow CD11b+Ly6Chi: unit not given here
From the text: SerBut water was pH adjusted using 10 M NaOH to a final pH of 7.4. […] After 6 weeks, mice were euthanized. […] The liver was harvested and part was homogenized in tissue protein extraction reagent buffer (Invitrogen, 78510) supplemented with protease inhibitor mini tablets (Thermo Fisher Scientific, PIA32955) for Western blotting and qPCR. […] The heart with the ascending and descending aorta to the diaphragm was harvested. The perivascular adipose tissue was carefully removed by microdissection while keeping the adventitia intact. […] After 45 minutes of digestion at 37°C with orbital shaking, aortas were passed through a 70 μm cell strainer, rinsed, pelleted, and plated into a U-bottom 96-well microplate for staining. […] Cells were washed in PBS supplemented with 2% FBS (FACS buffer) and stained for 30 minutes on ice with surface antibodies at a 1:200 dilution in a 1:1 mixture of FACS buffer and Brilliant Stain Buffer (BD Biosciences). Cells were washed with FACS buffer and PBS and fixed with 2% paraformaldehyde on ice for 20 minutes. Cells were washed twice with PBS and resuspended in FACS buffer. Precision count beads (BioLegend) were used to determine absolute cell counts. In this study, antibodies used included those against CD16/CD32 (BioLegend, clone 93, catalog 101302), CCR2 (PE; […] BD Biosciences, clone HL3, catalog 558079, BD Biosciences), […] (APC; […] BD Biosciences, clone 30-F11, catalog 564225), F4/80 (BUV496; BD Biosciences, clone T45-2342, catalog 750644), […].5; BioLegend, clone M5/114.15.2, catalog 107626), Ly-6C (APC-Cy7; […]

LDL-R = assay: Western blot of LDL-R in liver; assay type: in vivo, mouse
From the text: SerBut water was pH adjusted using 10 M NaOH to a final pH of 7.4. […] After 6 weeks, mice were euthanized. […] The liver was harvested and part was homogenized in tissue protein extraction reagent buffer (Invitrogen, 78510) supplemented with protease inhibitor mini tablets (Thermo Fisher Scientific, PIA32955) for Western blotting and qPCR.

NF-κB = assay: NF-κB-SEAP reporter assay in RAW-Blue cells after LPS; assay type: cell-based; conditions: then 200 ng/mL LPS 6 h
Description: NF-κB inhibition was assayed using the NF-κB-SEAP reporter cell line, RAW-Blue (InvivoGen, raw-sp). Cells were plated in round-bottom 96-well plates at 100,000 cells per well and cocultured with different concentrations of either NaBut or SerBut (0.15–12 mM) for 24 hours. After the addition of butyrate, cells were rinsed with phosphate buffered saline (PBS) and then stimulated with 200 ng/mL LPS in media for 6 hours.

[4] = Blood Chemistry, 6wk, individual mice, experiments 1 and 2

What does the source list for `CCCC(=O)[O-].[Na+]` [NaBut, sodium butyrate, reference compound]?
lipase in the plasma (ApoE^–/– mice on an HFD [1]; 6 weeks): significant increase; total cholesterol or triglycerides in the plasma (ApoE^–/– mice on an HFD [1]; 6 weeks): Neither SerBut nor NaBut influenced; LDL-C as a fraction of total cholesterol (ApoE^–/– mice on an HFD [1]; 6 weeks, 150 mM in drinking water, HFD): significantly reduced; Altherogenic Lipids (Chol-HDL) (ApoE^–/– mice on an HFD [1]; [4]): 872 and 974 and 870 and 998 and 868 and 1098 and 1088 and 922 and 790 and 882; HDL-C (ApoE^–/– mice on an HFD [1]; [4]): 44 and 40 and 42 and 36 and 38; LDL-C (ApoE^–/– mice on an HFD [1]; Blood Chemistry, individual mice, experiments 1 and 2): 284 and 358 and 282 and 372 and 310 and 334 and 344 and 346 and 348 and 320; ALT (ApoE^–/– mice on an HFD [1]; plasma at 6 weeks, 150 mM in drinking water ad libitum with HFD, individual mice): 35.16 and 44.74 and 39.32 and 26.1 and 40.12 and 26.24 and 30.52 and 29.96 and 35.92 and 47.84; Lipase (ApoE^–/– mice on an HFD [1]; plasma at 6 weeks, 150 mM in drinking water with HFD): 118 and 92 and 98 and 112 and 94 and 122 and 124 and 106; STARY Score Average (ApoE^–/– mice on an HFD [2]; average per mouse, experiments 1 and 2, grades per the 1st table): 4 and 4.278 and 4.083 and 3.889 and 4.367 and 4.595 and 4.611 and 4.667; CD68+ IHC Quantification CD68 % Lesion (ApoE^–/– mice on an HFD [2]; individual mice): 65.946 % Lesion and 80.0675 % Lesion and 77.46 % Lesion and 69.3112 % Lesion and 58.965 % Lesion and 57.8207 % Lesion and 65.2988 % Lesion; CD68+ IHC Quantification CD68+ (um2) (ApoE^–/– mice on an HFD [2]; individual mice): 195963 um2 and 152245 um2 and 221322 um2 and 227819 um2 and 178448 um2 and 177016 um2 and 268099 um2; CD68+ IHC Quantification Intima % Lesion (ApoE^–/– mice on an HFD [2]; individual mice): 12.0227 % Lesion and 7.77 % Lesion and 10.3458 % Lesion and 13.4964 % Lesion and 17.8935 % Lesion and 30.3544 % Lesion and 12.0651 % Lesion; CD68+ IHC Quantification Intima (um2) (ApoE^–/– mice on an HFD [2]; individual mice): 36578.9 um2 and 15233.4 um2 and 30544.5 um2 and 45695.4 um2 and 53110.1 um2 and 102496 um2 and 50318.2 um2; CD68+ IHC Quantification Necrotic Core % Lesion (ApoE^–/– mice on an HFD [2]; individual mice): 21.7224 % Lesion and 11.9211 % Lesion and 11.8215 % Lesion and 16.7081 % Lesion and 22.5501 % Lesion and 9.461 % Lesion and 22.3112 % Lesion; CD68+ IHC Quantification Necrotic Core (um2) (ApoE^–/– mice on an HFD [2]; individual mice): 64440.8 um2 and 22667.5 um2 and 33872.5 um2 and 54918.5 um2 and 69955.9 um2 and 28166.5 um2 and 89527.4 um2; CD45^+ total leukocytes, CD11b^+ monocytes and CCR2^+CD11b^+ monocytes in the aorta (ApoE^–/– mice on an HFD [3]; 6 weeks, compared with control groups): did not; CD11c^+MHCII^hi dendritic cells, CD11b^+F480^+ macrophages and CD19^+ B cells in the aorta (ApoE^–/– mice on an HFD [3]; 6 weeks, compared with water controls): significantly reduced; Aorta Flow B cell Count (ApoE^–/– mice on an HFD [3]; individual mice): 315.036 and 240.601 and 72.6582 and 149.307 and 158.07 and 295.152 and 181.142 and 268.448 and 139.825 and 307.858; Aorta Flow CD11b+F480+ (ApoE^–/– mice on an HFD [3]; individual mice): 25.0597 and 7.5188 and 3.353 and 10.7501 and 8.319 and 26.3753 and 5.998 and 6.129 and 4.994 and 11.9789; Aorta Flow CD11b+Ly6Chi (ApoE^–/– mice on an HFD [3]; individual mice): 10.7965 and 20.8384 and 26.2172 and 17.9684 and 39.3795 and 20.0501 and 6.707 and 17.9169 and 5.942 and 82.8937; Aorta Flow T Cell Count (ApoE^–/– mice on an HFD [3]; individual mice): 829.356 and 329.574 and 100.604 and 316.531 and 316.14 and 663.15 and 236.324 and 566.315 and 510.612 and 977.48; Aorta Flow CD11b+ Count (ApoE^–/– mice on an HFD [3]; individual mice, experiment 2): 159.148 and 69.3047 and 197.085 and 244.83 and 668.174 and 122.361 and 438.833 and 237.203 and 489.938 and 511.933; Aorta Flow CD11b+CCR2+ (ApoE^–/– mice on an HFD [3]; individual mice, experiment 2): 22.5564 and 10.0604 and 29.8614 and 43.9743 and 133.132 and 27.5912 and 84.5795 and 57.4282 and 142.549 and 96.6587; Aorta Flow CD45 Count (ApoE^–/– mice on an HFD [3]; individual mice, experiment 2): 1122.81 and 480.662 and 1340.18 and 1250.3 and 2283.35 and 857.726 and 1975.97 and 1910.11 and 5505.51 and 4110.98; Aorta Flow CD11c+MHCIIhi (ApoE^–/– mice on an HFD [3]; individual mice, cell count): 16.2907 and 5.589 and 14.3335 and 20.2044 and 75.358 and 13.1958 and 30.6448 and 26.2172 and 32.3431 and 60.8592; LDL-R protein levels in liver (LDL-R; 6 weeks): significantly suppressed; LDL-R Relative Expression (LDL-R; western Blot quantifiation, individual mice): 0.9947 and 1.813 and 1.671 and 2.327 and 1.487 and 1.248 and 0.7546 and 0.5275 and 1.539 and 2.451; NFkB OD (NF-κB; 0.45 mM 24 h): 0.161 and 0.132 and 0.164 and 0.174 and 0.222 and 0.147; NFkB OD (NF-κB; 1.3 mM 24 h): 0.118 and 0.109 and 0.114 and 0.106 and 0.112 and 0.117; NFkB OD (NF-κB; 4 mM 24 h): 0.077 and 0.086 and 0.085 and 0.074 and 0.081

Reference: PMC12333940, “A prometabolite strategy inhibits cardiometabolic disease in an ApoE^–/– murine model of atherosclerosis” (JCI Insight, 2025)
